Where “and” joins values, the source holds several entries; their conditions need not be identical. Equal values may be shown once. Read-outs that look alike come from different tables or passages of the source.
Assays:
SARS-CoV-2 NSP3 Mac1 [1] = biological target: T1, SARS-CoV-2 NSP3 Mac1 (Severe acute respiratory syndrome coronavirus 2, UniProt P0DTD1); type: binding; settings: for Refined occupancy: ligand occupancy after refinement (phenix.refine)
SARS-CoV-2 NSP3 Mac1 [2] = biological target: T1, SARS-CoV-2 NSP3 Mac1; type: binding; set-up: contains a conserved macrodomain enzyme (Mac1); settings: for Spearman est (compound concentration vs apparent Tm): DSF dose responsiveness, 1 µM nsp3 mac1, adj p given
Protocol: DSF and associated compound handling was performed as described ([12]), with 5 µM dye “Fluorescent Yellow” (Jacquard iDye Cat #JID1405) used in place of SYPRO Orange. Compounds were tested in triplicate, at seven concentrations in two-fold serial dilutions, at a top concentration of either 1,000 or 100 μM. To minimize experimental noise arising from plate location-based effects on Tma, all concentrations and replicates for each compound were tested within a single region of the microtiter plates, including a DMSO-only control from which ΔTmas were calculated for that compound. […] For each compound, to determine statistical significance of the dose responsive thermal shift, the Spearman’s coefficient was calculated between compound concentration and ΔTma.

[3] = PanDDA 1-BDC value of the event, crystal soak, compound concentration 100 mM, per dataset
[4] = PanDDA event map, 1 minus background density correction, crystal soaking of Mac1
[5] = crystal soak, compound concentration 100 mM, per dataset
[6] = ligand modeled in the crystal structure, crystal soak, compound concentration 100 mM, per dataset
[7] = true hit = binding in crystallographic soaking or the HTRF-based binding assay
[8] = ligand modeled from this dataset, compound concentration 100 mM
[9] = PanDDA event map, 1-BDC of the hit dataset, crystal soak, compound concentration 100 mM
[10] = overall hit flag: binding in crystallographic soaking or the HTRF-based binding assay
[11] = maximal thermal upshift vs DMSO control

Row | SMILES | 1-BDC (SARS-CoV-2 NSP3 Mac1 [1]; [3]) | 1-BDC (SARS-CoV-2 NSP3 Mac1 [1]; [4]) | PanDDA hit? (SARS-CoV-2 NSP3 Mac1 [1]; [5]) | Modeled? (SARS-CoV-2 NSP3 Mac1 [1]; [6]) | Refined occupancy (SARS-CoV-2 NSP3 Mac1 [1]; crystal soaking of Mac1) | HIT* (SARS-CoV-2 NSP3 Mac1 [1]; [7]) | Spearman est (compound concentration vs apparent Tm) (SARS-CoV-2 NSP3 Mac1 [2]) | DSF max dTma (SARS-CoV-2 NSP3 Mac1 [2]; maximal thermal upshift) | 1-BDC (SARS-CoV-2 NSP3 Mac1 [1]; PanDDA event map, 1-BDC of the hit dataset, crystal soak, compound concentration 100 mM, listed as F2804) | 1-BDC (PanDDA) (SARS-CoV-2 NSP3 Mac1 [1]; [4]) | Modeled? (SARS-CoV-2 NSP3 Mac1 [1]; [8]) | 1-BDC (SARS-CoV-2 NSP3 Mac1 [1]; [9]) | HIT* (SARS-CoV-2 NSP3 Mac1 [1]; [10]) | DSF max dTma (SARS-CoV-2 NSP3 Mac1 [2]; [11])
1 | Cc1nnc2n1CC(C(=O)O)N(C(=O)c1ccc(NC(=O)NC3CC3)cc1)C2 (stereo not drawn) [8539_0037] | 0.4 | 0.4 | TRUE | TRUE | 80 | Y | 0.16 | 2.36 ˚C |  |  |  |  |  | 
2 | O=C(Nc1ccc(C(=O)N2CC(C(=O)O)Cc3ccccc32)cc1)NC1CC1 (stereo not drawn) [8539_0038] | 0.06 | 0.06 | TRUE | TRUE | 12 | Y | 0.19 | 0.98 ˚C |  |  |  |  |  | 
3 | Cn1nc(O)c2c1CN(C(=O)c1cc(O)cc(=O)o1)CC2 [FRESH00002410346] | 0.07 | 0.07 | TRUE | TRUE | 14 | Y | −0.34 | 0.09 ˚C |  |  |  |  |  | 
4 | Cc1cc(S(=O)(=O)Nc2cnc3[nH]ccc3c2)n(C2CCCC2)n1 [FRESH00010608284] |  | 0.15 |  |  | 30 | Y | −0.51 | 0.06 ˚C |  |  |  |  |  | 
5 | CC1(C)CCC(C(=O)O)CN1C(=O)c1ncnc2[nH]ccc12 (stereo not drawn) [FRESH00012962804] |  | 0.22 |  |  | 44 | Y | 0.54 | 0.62 ˚C | 0.32 and 0.28 |  |  |  |  | 
6 | CC1(C(=O)O)CCN(C(=O)Cc2c[nH]c3nccc(Cl)c23)C1 (stereo not drawn) [FRESH00014134848] |  | 0.11 |  |  | 22 | Y | 0.41 | 0.07 ˚C |  |  |  |  |  | 
7 | CNS(=O)(=O)c1cc(C(=O)N2CCc3nc(N)ncc3C2)co1 [FRESH00014649046] | 0.07 |  | TRUE |  | 12 | Y | 0.3 | 0.29 ˚C |  | 0.06 | TRUE |  |  | 
8 | O=c1nc(N2CC(Cn3cnnc3)C3(CCC3)C2)cc(Cl)[nH]1 (stereo not drawn) [FRESH00020289192] |  | 0.08 |  |  | 16 | Y | −0.17 | 0.04 ˚C |  |  |  |  |  | 
9 | O=C(O)[C@@H]1CCCN(C(=O)c2ccnc3[nH]ccc23)C1 [REAL250000548538] |  | 0.08 |  |  | 16 | Y | 0.27 | 0.25 ˚C |  |  | TRUE |  |  | 
10 | O=C(c1cn[nH]c(=O)c1)N1CCC(CF)(C(=O)O)C1 (stereo not drawn) [REAL250001448407] |  | 0.12 |  |  | 24 | Y | −0.24 | 0 ˚C |  |  |  |  |  | 
11 | CN(CCCC(=O)O)C(=O)c1ncnc2[nH]ccc12 [REAL250002155324] |  | 0.12 |  |  | 24 | Y | −0.27 | 0.12 ˚C |  |  |  |  |  | 
12 | O=C(O)C[C@@H]1CCCN(c2ncnc3nc[nH]c23)C1 [REAL250002852032] |  | 0.19 |  |  | 38 | Y | 0.29 | 0.58 ˚C |  |  |  |  |  | 
13 | Nc1ncnc(N2CCCC(CCC(=O)O)C2)c1Cl (stereo not drawn) [REAL250003296134] | 0.09 | 0.09 | TRUE | TRUE | 18 | Y | 0.65 | 0.34 ˚C |  |  |  |  |  | 
14 | CN(CC(=O)O)C(=O)c1ccc2n[nH]c(=O)n2c1 [REAL250003774401] |  | 0.16 |  |  | 32 | Y | −0.3 | 0 ˚C |  |  |  |  |  | 
15 | CCc1c[nH]c2ncc(-c3c(C(=O)O)c(C)nn3C)cc12 [REAL250003958539] |  | 0.14 |  |  | 28 | Y | 0.15 | 0.35 ˚C |  |  |  | 0.2 |  | 
16 | CC1CC(C(=O)O)N1C(=O)c1cc(O)nc2ccc(F)cc12.O=C(O)C(F)(F)F (stereo not drawn) [REAL300007260658] |  | 0.11 |  |  | 22 | Y | −0.11 | 0.37 ˚C |  |  |  | 0.18 |  | 
17 | CC1C(C(=O)O)CCCN1S(=O)(=O)c1c[nH]c2ncc(Cl)cc12 (stereo not drawn) [REAL300016493575] |  |  |  |  | 18 | Y | −0.16 | 0.15 ˚C |  | 0.09 | TRUE |  |  | 
18 | O=C(Cc1ccc(-n2cccn2)cc1)OCC1CCCNC1=O (stereo not drawn) [Z5505] |  |  |  |  |  |  |  |  |  |  |  |  | Y | 0.16 °C
19 | c1csc(CC2CCN(c3ncnc4[nH]ccc34)C2)n1 (stereo not drawn) [Z6891] |  |  |  |  |  |  |  |  |  |  |  |  | Y | 0.15 °C
20 | Cc1oc(=O)oc1CSc1ncnc2[nH]cnc12 [Z7450] |  |  |  |  |  |  |  |  |  |  |  |  | Y | 0.49 °C

— publication PMC9926234, “Iterative computational design and crystallographic screening identifies potent inhibitors targeting the Nsp3 macrodomain of SARS-CoV-2” (Proceedings of the National Academy of Sciences of the …, 2023)
